In patent US9168288B2, “Methods for treating disorders of the gastrointestinal tract using a GLP-1 agonist” (Mount Sinai Hospital, priority 2010, dated 2015):

Legend:
Format in all cases: in vivo
[1] = tested on: female wild-type mice on the Balb/c genetic background; assay: Example 5: low dose Liraglutide (30 or 50 μg/kg BID s.c., one week), large intestine size and body weight, Balb/c mice; details: Liraglutide 30 μg/kg BID s.c. 7 days vs PBS
From the text: FIGS. 18A-18D illustrate that doses of Liraglutide lower than those that have shown glucose lowering or cardioprotective effects in rodents [Rolin B, et al, 2002; Noyan-Ashraf M H, et al, 2009; Porter D W et al, 2010; Irwin N et al, 2010; and Gault V A et al, 2011] are still able to increase large intestine size (large intestine weight and length) in wild-type mice compared to PBS-treated mice. FIGS. 18A-18D also illustrate that Liraglutide treatment can increase large intestine size (large intestine length and weight) in wild-type mice on the Balb/c genetic background compared to control-treated mice. All mice were 9-week old female wild-type mice on the Balb/c genetic background. All mice were maintained on a standard rodent chow diet and normal drinking water. Mice were given s.c. injections of either phosphate buffered saline (PBS), 30 μg/kg of Liraglutide (LG) BID, or 50 μg/kg of LG BID for one week. Injections were administered using a 31 g insulin syringe with an 8 mm long needle and in a final volume that ranged between 60-120 μl. Body weights and food intake were determined daily. […] The large intestine was removed and its length was determined by measuring with a ruler placed on a horizontal surface. Luminal contents were removed from the large intestine by flushing with ice-cold PBS using a 60 cc syringe attached to a p200 pipette tip. Mesenteric fat was dissected away from the large intestine. The large intestine was blotted to remove excess PBS and then weighed. Statistical analyses were done by one-way ANOVA with Bonferroni's Multiple Comparison Post-Test using GraphPad Prism software (version 4).
All mice were 9-week old female wild-type mice on the Balb/c genetic background. All mice were maintained on a standard rodent chow diet and normal drinking water. Mice were given s.c. injections of either phosphate buffered saline (PBS), 30 μg/kg of Liraglutide (LG) BID, or 50 μg/kg of LG BID for one week. […] Body weights and food intake were determined daily. […]

[2] = tested on: wild-type female C57B1/6 mice on regular drinking water or 3% DSS; assay: Example 5: low dose Liraglutide (25 or 50 μg/kg BID s.c., one week), small intestine size, body weight, blood glucose; details: C57B1/6, regular water or 3% DSS
Description: All mice were 10-week old wild-type female mice on the C57B1/6 genetic background. Mice were maintained on a standard rodent chow diet and either regular drinking water or water supplemented with 3% DSS for a total of one week. Mice were given subcutaneous injections of either phosphate buffered saline (PBS), 25 μg/kg of Liraglutide (LG) BID, or 50 μg/kg of LG BID for one week. PBS or LG injections commenced at the same time that mice were started on normal drinking water or water supplemented with 3% DSS. Injections were administered using a 31 g insulin syringe with an 8 mm long needle and in a final volume that ranged between 85-110 μl. Body weights, food intake, and water intake were determined daily. […] Small intestines were removed and then suspended vertically with a 1 g weight attached to the distal portion of the small intestine (to provide uniform tension). Small intestine length was determined using a vertical ruler. Luminal contents were removed from the small bowel by flushing with ice-cold PBS using a 60 cc syringe attached to a p200 pipette tip. Mesenteric fat and pancreatic tissue were dissected away from the small intestine. The small intestine was blotted to remove excess PBS and then weighed. Statistical analyses were done by one-way ANOVA with Bonferroni's Multiple Comparison Post-Test using GraphPad Prism software (version 4).
All mice were 10-week old female wild-type mice on the C57B1/6 genetic background. Mice were maintained on a standard rodent chow diet and either regular drinking water or water supplemented with 3% DSS for a total of one week. Mice were given s.c. injections of either phosphate buffered saline (PBS), 25 μg/kg of Liraglutide (LG) BID, or 50 μg/kg of LG BID for one week. PBS or LG injections commenced at the same time that mice were started on normal drinking water or water supplemented with 3% DSS. Injections were administered using a 31 g insulin syringe with an 8 mm long needle and in a final volume that ranged between 85-110 μl. Body weights, food intake, and water intake were determined daily. Blood glucose levels were measured on the first day of the study and just prior to sacrifice. Statistical analyses were done by one-way ANOVA with Bonferroni's Multiple Comparison Post-Test using GraphPad Prism software (version 4). n=5 mice/group.

[3] = tested on: WT female mice on the C57B1/6 genetic background; assay: Example 3: efficacy of GLP-1 receptor agonists administered once per day (body weight, blood glucose, pancreas, small bowel, colon)
Description: All mice used in the study were 10-week old WT female mice on the C57B1/6 genetic background. The mice were maintained on regular drinking water and a standard rodent chow diet.
All injections were given once per day, and were administered ip using a 31 g insulin syringe with an 8 mm long needle in a final volume that ranged between 84-125 μl. The body weight and food intake were determined daily. Non-fasting blood glucose levels were measured using a hand-held glucometer on day 1 (prior to the first injection), day 8, and day 15 (day of sacrifice). […] The entire pancreas was removed and weighed. The entire small bowel was removed and then suspended vertically with a 1 g weight attached to the distal portion of the small bowel (to provide uniform tension). Small bowel length was determined using a vertical ruler and then flushed with ice-cold PBS, blotted dry and weighed. The entire colon was removed and colon length was determined by measuring with a ruler placed on a horizontal surface. The colon was then flushed with ice-cold PBS, blotted dry and weighed. All statistical analyses were done by one-way ANOVA with Bonferroni's Multiple Comparison Post-Test using GraphPad Prism software (version 4), n=4 mice/group.

[4] = Liraglutide 25 μg/kg BID s.c. 7 days vs PBS, listed as 3% DSS/Liguratide
[5] = Liraglutide 25 μg/kg BID s.c. 7 days vs PBS, listed as liraglutide
[6] = Liraglutide 50 μg/kg BID s.c. 7 days vs PBS
[7] = Liraglutide 50 μg/kg BID s.c. 7 days vs PBS, listed as 3% DSS/Liguratide
[8] = Liraglutide 50 μg/kg BID s.c. 7 days vs PBS, listed as liraglutide
[9] = Liraglutide once a day ip for two weeks (LG qd 2, 75 μg/kg) vs PBS

For CCCCCCCCCCCCCCCC(=O)N[C@@H](CCC(=O)NCCCC[C@H](NC(=O)[C@H](C)NC(=O)[C@H](C)NC(=O)[C@H](CCC(N)=O)NC(=O)CNC(=O)[C@H](CCC(=O)O)NC(=O)[C@H](CC(C)C)NC(=O)[C@H](Cc1ccc(O)cc1)NC(=O)[C@H](CO)NC(=O)[C@H](CO)NC(=O)[C@@H](NC(=O)[C@H](CC(=O)O)NC(=O)[C@H](CO)NC(=O)[C@@H](NC(=O)[C@H](Cc1ccccc1)NC(=O)[C@@H](NC(=O)CNC(=O)[C@H](CCC(=O)O)NC(=O)[C@H](C)NC(=O)[C@@H](N)Cc1cnc[nH]1)[C@@H](C)O)[C@@H](C)O)C(C)C)C(=O)N[C@@H](CCC(=O)O)C(=O)N[C@@H](Cc1ccccc1)C(=O)N[C@H](C(=O)N[C@@H](C)C(=O)N[C@@H](Cc1c[nH]c2ccccc12)C(=O)N[C@@H](CC(C)C)C(=O)N[C@H](C(=O)N[C@@H](CCCNC(=N)N)C(=O)NCC(=O)N[C@@H](CCCNC(=N)N)C(=O)NCC(=O)O)C(C)C)[C@@H](C)CC)C(=O)O [Liraglutide], the “decrease body weight (final body weight)” value [1] was “no difference”, the “decrease body weight (final body weight)” value ([1]; listed as 3% DSS/Liguratide) was “No” and the “decrease body weight (final body weight)” value ([1]; listed as liraglutide) was “no difference”. For the same molecule, the “increase blood glucose (blood glucose level)” value (“increase blood glucose” below) ([2]; Liraglutide 25 μg/kg BID s.c. 7 days vs PBS) was “no difference”, the “decrease body weight (final body weight)” value [2, 4] was “No” and the “increase blood glucose” value [2, 4] was “No”. The “decrease body weight (final body weight)” value [2, 5] was “no difference”, the “increase blood glucose” value [2, 5] was “no difference” and the “decrease body weight (final body weight)” value [2, 6] was “no difference”. For the same molecule, the “increase blood glucose” value [2, 6] was “no difference”, the “decrease body weight (final body weight)” value [2, 7] was “No” and the “increase blood glucose” value [2, 7] was “No”. The “decrease body weight (final body weight)” value [2, 8] was “no difference”, the “increase blood glucose” value [2, 8] was “no difference” and the “non-fasting blood glucose levels” value ([3]; Liraglutide 75 μg/kg ip once a day for one week vs PBS) was “does not alter”. The “non-fasting blood glucose levels” value ([3]; Liraglutide 75 μg/kg ip once a day for two weeks vs PBS) was “significantly increased”, the body weight ([3]; Liraglutide 75 μg/kg ip once per day for 7 days (LG qd 1) vs PBS) was “do not have a significant effect” and the body weight ([3]; Liraglutide 75 μg/kg ip once per day for 14 days (LG qd 2) vs PBS) was “do not have a significant effect”. For the same molecule, the “pancreas weight per gram of body weight” value [3, 9] was “significantly increases” and the total pancreas weight [3, 9] was “significantly increases”.
